Assay results: US9290496B2, “Purine derivatives” (PFIZER INC., priority 2013, dated 2016)

Key:
Format in all cases: cell-based
EGFR L858R (NCI-H3255) = target: T1, EGFR L858R (NCI-H3255) (Homo sapiens, UniProt P00533, L858R); test: pEGFR Y1068 ELISA assay, NCI-H3255 cells
T1 construct: detects endogenous levels of phospho-EGF Receptor (Tyr1068) protein; host or cells: NCI-H3255
Method: (§1) The PathScan® Phospho-EGF Receptor (Tyr1068) Sandwich ELISA Kit is a solid phase sandwich enzyme-linked immunosorbent assay (ELISA) that detects endogenous levels of phospho-EGF Receptor (Tyr1068) protein. […] NCI-H3255 cells were licensed from NCI. […] All cells were cultured according to ATCC recommendations. A549, NCI-H1975, PC9, and NCI-H3255 cells were grown in RPMI media (Invitrogen, Carlsbad, Calif.) supplemented with 10% FBS (Sigma, St Louis, Mo.), and with 1% Penn/Strep (Invitrogen).
(§2) Each compound was prepared as a DMSO stock solution (10 mM). Compounds were tested in duplicate on each plate, with an 11-point serial dilution curve (1:3 dilution). Compound treatment (50 μL) was added from the compound dilution plate to the cell plate. […] Plates were then incubated for 2 hr at 37° C., 5% CO2. […] The wash was then flicked off and ice-cold lysis buffer was added to the cells (50 μL/well). The plate was shaken for 20-30 min at 4° C. to completely lyse the cells. Sample diluent (50 μL/well) was added to the ELISA plate, and the lysate (50 μL) was diluted into the sample diluent in each well of the ELISA plate. Plates were sealed and incubated overnight at 4° C. with shaking. The next day, wells were washed four times with 1× Wash Buffer; plates were taped on lint-free paper after the final wash prior to adding Add Detection Antibody (green, 100 μL/well) to each well and incubating for 1 hr at 37° C. After incubation, wells were washed as described. HRP-Linked secondary antibody (red, 100 μL/well) was added to each well and incubated for 30 min at 37° C. After incubation, the wells were washed as described. TMB Substrate (100 μL/well) was added to each well and the plate incubated for 10 min at 37° C. or 30 min at rt maximum. Stop Solution (100 μL/well) was added to each well at the end of the incubation and plates were shaken gently for a few seconds. […] Data were analyzed using a four-parameter fit in Microsoft Excel.

[1] = target: T2, EGFR L858R+T790M, endogenous (NCI-H1975) (Homo sapiens, UniProt P00533, L858R/T790M); test: pEGFR Y1068 ELISA assay, NCI-H1975 cells; settings: inhibition of phosphorylation of EGFR at Tyr1068; NCI-H1975 NSCLC cells; 2 hr compound incubation
T2 construct: NCI-H1975 (EGFR L858R+T790M, endogenous); host or cells: NCI-H1975
Method: (§3) Phosphorylation of EGFR at Y1068 was measured by PathScan® Phospho-EGF Receptor (Try1068) Sandwich ELISA kit (#7240, Cell Signaling Technology®, Danvers, Mass.). The PathScan® Phospho-EGF Receptor (Tyr1068) Sandwich ELISA Kit is a solid phase sandwich enzyme-linked immunosorbent assay (ELISA) that detects endogenous levels of phospho-EGF Receptor (Tyr1068) protein. […] All cells were cultured according to ATCC recommendations. A549, NCI-H1975, PC9, and NCI-H3255 cells were grown in RPMI media (Invitrogen, Carlsbad, Calif.) supplemented with 10% FBS (Sigma, St Louis, Mo.), and with 1% Penn/Strep (Invitrogen). PC9-DRH cells were grown in RPMI with 10% FBS and 1 μM dacomitinib.
(§4) Cells were plated at 40,000/well in complete culture media (50 μL/well) on the bottom of clear tissue culture treated microtiter plates (#3595, Corning Inc, Corning, N.Y.) and allowed to adhere overnight at 37° C., 5% CO2. The following day, compound dilution plates were prepared in 96 well clear V-bottom 0.5 mL polypropylene block plates (#3956, Corning, Inc). Each compound was prepared as a DMSO stock solution (10 mM). Compounds were tested in duplicate on each plate, with an 11-point serial dilution curve (1:3 dilution). Compound treatment (50 μL) was added from the compound dilution plate to the cell plate. […] Plates were then incubated for 2 hr at 37° C., 5% CO2. For A549 (EGFR wildtype) assay, cells were plated in full-serum (10%) media for 24 hr prior to compound treatment; cells were treated in full serum media as described and then stimulated for 10 min with EGF (40 ng/mL/starvation media, Invitrogen). Immediately prior to the end of the incubation, ice-cold lysis buffer was prepared (1× Cell Lysis Buffer (#9803, Cell Signaling Technology), 1 mM sodium orthovanadate (Na3VO4, #96508, Sigma), 1 mM phenylmethanesulfonyl fluoride (PMSF, 52332, CalBiochem/EMD Chemicals), complete Mini EDTA-free Protease Inhibitor Cocktail Tablet (1 tablet/10 mL, #11836170001, Roche, Indianapolis, Ind.), and PhosSTOP Phosphatase Inhibitor Cocktail Tablet (1 tablet/10 mL, #04906837001, Roche) in pure water. At the end of 2 hr, media was flicked off and cells were washed once with ice-cold 1 mM Na3VO4 in PBS (100 μL/well, Invitrogen). The wash was then flicked off and ice-cold lysis buffer was added to the cells (50 μL/well). The plate was shaken for 20-30 min at 4° C. to completely lyse the cells. Sample diluent (50 μL/well) was added to the ELISA plate, and the lysate (50 μL) was diluted into the sample diluent in each well of the ELISA plate. Plates were sealed and incubated overnight at 4° C. with shaking. The next day, wells were washed four times with 1× Wash Buffer; plates were taped on lint-free paper after the final wash prior to adding Add Detection Antibody (green, 100 μL/well) to each well and incubating for 1 hr at 37° C. After incubation, wells were washed as described. HRP-Linked secondary antibody (red, 100 μL/well) was added to each well and incubated for 30 min at 37° C. After incubation, the wells were washed as described. TMB Substrate (100 μL/well) was added to each well and the plate incubated for 10 min at 37° C. or 30 min at rt maximum. Stop Solution (100 μL/well) was added to each well at the end of the incubation and plates were shaken gently for a few seconds. Absorbance was read at 450 nm within 30 min after addition of Stop Solution on a PerkinElmer EnVision Excite Multilabel Reader Method for Absorbance or on a Molecular Devices SpectraMax^384 Reader for absorbance. Data were analyzed using a four-parameter fit in Microsoft Excel.

EGFR del/T790M (PC9-DRH) = target: T3, EGFR del/T790M (PC9-DRH) (Homo sapiens, UniProt P00533, DEL746-750/T790M); test: pEGFR Y1068 ELISA assay, PC9-DRH cells; settings: inhibition of phosphorylation of EGFR at Tyr1068; PC9-DRH cells (dacomitinib resistant); 2 hr compound incubation
T3 construct: detects endogenous levels of phospho-EGF Receptor (Tyr1068) protein; endogenous in cells; host or cells: PC9-DRH (dacomitinib-resistant derivative of PC9, generated in house)
T3 sequence (P00533 with tags, fused parts or gaps DEL746-750/T790M): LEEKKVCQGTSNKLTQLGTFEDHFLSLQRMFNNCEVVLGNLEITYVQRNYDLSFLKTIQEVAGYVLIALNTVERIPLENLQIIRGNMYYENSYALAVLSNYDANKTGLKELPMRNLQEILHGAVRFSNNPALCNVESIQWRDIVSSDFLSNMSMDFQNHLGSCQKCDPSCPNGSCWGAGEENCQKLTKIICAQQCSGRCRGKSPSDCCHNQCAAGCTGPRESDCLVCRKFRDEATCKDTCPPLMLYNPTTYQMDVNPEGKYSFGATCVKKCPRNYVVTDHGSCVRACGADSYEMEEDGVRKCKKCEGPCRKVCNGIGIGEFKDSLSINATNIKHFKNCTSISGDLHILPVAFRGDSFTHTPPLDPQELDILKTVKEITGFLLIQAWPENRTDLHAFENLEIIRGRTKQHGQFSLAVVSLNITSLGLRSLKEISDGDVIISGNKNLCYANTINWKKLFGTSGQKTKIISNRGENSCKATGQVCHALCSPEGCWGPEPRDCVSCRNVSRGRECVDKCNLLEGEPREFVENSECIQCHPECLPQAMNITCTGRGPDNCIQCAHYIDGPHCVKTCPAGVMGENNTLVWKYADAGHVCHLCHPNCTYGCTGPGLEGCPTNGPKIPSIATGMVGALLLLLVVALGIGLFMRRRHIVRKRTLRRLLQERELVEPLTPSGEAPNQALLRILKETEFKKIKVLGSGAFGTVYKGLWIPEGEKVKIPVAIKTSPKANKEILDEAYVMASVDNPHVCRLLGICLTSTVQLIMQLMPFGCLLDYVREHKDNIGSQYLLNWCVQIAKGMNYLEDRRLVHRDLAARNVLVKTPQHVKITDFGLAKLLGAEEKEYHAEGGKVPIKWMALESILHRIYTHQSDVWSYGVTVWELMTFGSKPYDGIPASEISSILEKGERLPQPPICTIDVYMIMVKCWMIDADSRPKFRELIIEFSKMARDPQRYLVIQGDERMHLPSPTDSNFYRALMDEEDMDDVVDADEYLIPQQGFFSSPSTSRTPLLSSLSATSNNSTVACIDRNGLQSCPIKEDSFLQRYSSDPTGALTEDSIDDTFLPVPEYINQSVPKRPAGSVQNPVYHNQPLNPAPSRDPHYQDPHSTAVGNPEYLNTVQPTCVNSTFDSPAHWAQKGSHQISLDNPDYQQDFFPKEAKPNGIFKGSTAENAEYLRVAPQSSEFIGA
Method: as §1, §2

[2] = target: T4, EGFR wildtype, endogenous (A549) (Homo sapiens, UniProt P00533); test: pEGFR Y1068 ELISA assay, A549 cells; settings: inhibition of phosphorylation of EGFR at Tyr1068; A549 NSCLC cells; 2 hr compound incubation, then stimulated 10 min with EGF (40 ng/mL)
T4 construct: A549 (EGFR wildtype, endogenous); host or cells: A549 (stimulated with EGF)
T4 sequence (P00533 25-1210): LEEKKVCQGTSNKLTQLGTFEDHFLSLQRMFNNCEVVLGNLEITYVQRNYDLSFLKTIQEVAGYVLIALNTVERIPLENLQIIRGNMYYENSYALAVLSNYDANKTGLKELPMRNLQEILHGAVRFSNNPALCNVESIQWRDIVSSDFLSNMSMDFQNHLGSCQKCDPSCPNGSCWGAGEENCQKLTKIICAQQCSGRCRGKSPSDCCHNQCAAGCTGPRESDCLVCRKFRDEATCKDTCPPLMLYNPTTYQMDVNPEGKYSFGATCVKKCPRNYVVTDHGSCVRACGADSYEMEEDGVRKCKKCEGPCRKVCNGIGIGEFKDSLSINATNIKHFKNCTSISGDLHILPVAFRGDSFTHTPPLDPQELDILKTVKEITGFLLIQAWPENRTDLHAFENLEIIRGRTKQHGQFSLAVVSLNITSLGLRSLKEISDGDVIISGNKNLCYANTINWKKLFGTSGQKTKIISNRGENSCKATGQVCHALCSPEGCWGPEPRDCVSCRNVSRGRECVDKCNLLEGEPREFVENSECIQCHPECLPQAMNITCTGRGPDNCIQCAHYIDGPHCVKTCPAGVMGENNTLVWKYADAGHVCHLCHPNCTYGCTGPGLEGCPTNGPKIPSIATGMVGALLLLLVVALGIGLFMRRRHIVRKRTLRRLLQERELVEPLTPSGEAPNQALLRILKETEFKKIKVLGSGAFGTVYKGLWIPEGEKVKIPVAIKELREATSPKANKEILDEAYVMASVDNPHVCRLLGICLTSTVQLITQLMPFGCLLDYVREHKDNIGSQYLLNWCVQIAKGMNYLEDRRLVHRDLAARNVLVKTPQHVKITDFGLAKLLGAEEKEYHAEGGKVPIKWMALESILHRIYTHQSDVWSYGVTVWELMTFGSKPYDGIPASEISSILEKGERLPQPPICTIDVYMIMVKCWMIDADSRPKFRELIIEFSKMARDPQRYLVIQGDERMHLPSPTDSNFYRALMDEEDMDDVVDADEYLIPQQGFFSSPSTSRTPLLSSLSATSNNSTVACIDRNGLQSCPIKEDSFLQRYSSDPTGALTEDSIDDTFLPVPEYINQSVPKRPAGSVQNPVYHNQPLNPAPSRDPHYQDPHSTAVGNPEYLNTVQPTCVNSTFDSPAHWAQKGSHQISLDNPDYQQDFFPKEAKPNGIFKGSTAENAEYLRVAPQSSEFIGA
Method: as §3, §4

EGFR del (PC9) = target: T5, EGFR del (PC9) (Homo sapiens, UniProt P00533, DEL746-750); test: pEGFR Y1068 ELISA assay, PC9 cells; settings: inhibition of phosphorylation of EGFR at Tyr1068; PC9 NSCLC cells; 2 hr compound incubation
T5 construct: detects endogenous levels of phospho-EGF Receptor (Tyr1068) protein; host or cells: PC9
T5 sequence (P00533 with tags, fused parts or gaps DEL746-750): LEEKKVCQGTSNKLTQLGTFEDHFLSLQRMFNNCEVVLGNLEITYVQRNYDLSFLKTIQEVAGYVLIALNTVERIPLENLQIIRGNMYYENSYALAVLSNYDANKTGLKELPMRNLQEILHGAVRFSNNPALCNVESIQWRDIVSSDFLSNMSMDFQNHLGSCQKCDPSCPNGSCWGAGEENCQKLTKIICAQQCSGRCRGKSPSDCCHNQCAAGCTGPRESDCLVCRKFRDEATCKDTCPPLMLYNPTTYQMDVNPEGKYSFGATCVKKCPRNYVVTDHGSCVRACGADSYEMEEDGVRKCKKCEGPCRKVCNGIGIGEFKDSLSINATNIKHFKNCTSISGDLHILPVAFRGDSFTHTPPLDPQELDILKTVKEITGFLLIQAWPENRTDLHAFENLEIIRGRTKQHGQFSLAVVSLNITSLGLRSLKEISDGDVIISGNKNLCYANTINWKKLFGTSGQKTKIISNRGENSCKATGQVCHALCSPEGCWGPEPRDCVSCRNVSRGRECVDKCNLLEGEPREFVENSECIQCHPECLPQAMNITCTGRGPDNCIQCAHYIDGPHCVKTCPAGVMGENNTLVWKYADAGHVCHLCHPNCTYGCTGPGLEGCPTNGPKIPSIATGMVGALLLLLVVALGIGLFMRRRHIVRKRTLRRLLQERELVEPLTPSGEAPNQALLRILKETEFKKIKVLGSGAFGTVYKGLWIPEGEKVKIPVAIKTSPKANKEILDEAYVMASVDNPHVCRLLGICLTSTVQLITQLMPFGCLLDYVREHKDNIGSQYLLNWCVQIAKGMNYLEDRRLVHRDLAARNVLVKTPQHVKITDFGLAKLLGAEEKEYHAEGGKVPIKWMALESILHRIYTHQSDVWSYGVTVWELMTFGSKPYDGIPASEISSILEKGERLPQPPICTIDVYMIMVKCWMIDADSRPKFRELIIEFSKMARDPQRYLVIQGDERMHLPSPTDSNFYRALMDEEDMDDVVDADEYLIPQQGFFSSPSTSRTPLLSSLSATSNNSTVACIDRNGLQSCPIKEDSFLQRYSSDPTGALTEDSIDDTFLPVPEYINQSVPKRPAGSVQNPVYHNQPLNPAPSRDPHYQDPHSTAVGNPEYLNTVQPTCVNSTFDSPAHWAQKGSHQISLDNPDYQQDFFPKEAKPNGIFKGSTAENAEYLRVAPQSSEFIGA
Method: as §1, §2

T1 sequence (P00533 25-1210 L858R): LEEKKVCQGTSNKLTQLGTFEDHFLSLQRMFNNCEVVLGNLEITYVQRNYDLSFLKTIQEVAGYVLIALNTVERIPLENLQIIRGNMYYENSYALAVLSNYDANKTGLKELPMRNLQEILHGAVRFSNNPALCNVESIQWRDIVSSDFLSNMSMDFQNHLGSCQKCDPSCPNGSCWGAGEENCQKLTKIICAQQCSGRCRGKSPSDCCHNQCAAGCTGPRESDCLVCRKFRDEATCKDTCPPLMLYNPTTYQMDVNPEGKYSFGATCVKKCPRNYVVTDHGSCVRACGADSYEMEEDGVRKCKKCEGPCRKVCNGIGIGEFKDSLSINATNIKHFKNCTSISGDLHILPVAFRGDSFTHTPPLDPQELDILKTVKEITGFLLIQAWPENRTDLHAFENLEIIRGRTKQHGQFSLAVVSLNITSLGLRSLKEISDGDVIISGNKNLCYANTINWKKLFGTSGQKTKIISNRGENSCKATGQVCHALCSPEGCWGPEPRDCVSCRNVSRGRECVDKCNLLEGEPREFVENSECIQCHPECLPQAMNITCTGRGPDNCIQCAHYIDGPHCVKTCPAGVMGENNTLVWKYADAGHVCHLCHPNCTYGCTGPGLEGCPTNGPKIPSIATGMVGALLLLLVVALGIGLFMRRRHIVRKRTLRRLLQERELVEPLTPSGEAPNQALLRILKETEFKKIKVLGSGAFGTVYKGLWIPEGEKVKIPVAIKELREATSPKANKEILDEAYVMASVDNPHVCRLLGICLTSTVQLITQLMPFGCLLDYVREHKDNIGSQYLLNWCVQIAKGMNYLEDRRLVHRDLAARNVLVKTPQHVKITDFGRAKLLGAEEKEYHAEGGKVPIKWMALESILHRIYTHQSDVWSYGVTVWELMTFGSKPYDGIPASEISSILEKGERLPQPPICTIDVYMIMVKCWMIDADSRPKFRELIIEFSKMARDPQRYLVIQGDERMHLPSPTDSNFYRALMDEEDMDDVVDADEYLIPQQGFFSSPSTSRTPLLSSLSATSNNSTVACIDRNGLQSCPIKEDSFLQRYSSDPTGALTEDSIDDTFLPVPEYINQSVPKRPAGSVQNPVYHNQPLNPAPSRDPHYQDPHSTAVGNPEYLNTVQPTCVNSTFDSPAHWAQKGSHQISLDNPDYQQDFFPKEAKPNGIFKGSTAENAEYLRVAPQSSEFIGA

Q: How did the IC50 (EGFR L858R (NCI-H3255)) turn out when `C=CC(=O)N[C@@H]1CN(c2nc(Nc3cn(C4CCN(C)C4)nc3C)c3ncn(C)c3n2)C[C@H]1F` (stereo partly drawn) [Example 81, N-((3R,4R)-4-fluoro-1-(9-methyl-6-((3-methyl-1-(1-methylpyrrolidin-3-yl)-1H -pyrazol-4-yl)amino)-9H-purin-2-yl)pyrrolidin-3-yl)acrylamide] was run?
A: 15 nM

Q: What about the IC50 [1] of the same molecule?
A: 19 nM

Q: And the IC50 (EGFR del/T790M (PC9-DRH))?
A: 8 nM

Q: And the IC50 [2]?
A: 575 nM

Q: What about the IC50 (EGFR del (PC9)) of the same molecule?
A: 21 nM

Q: What does the source list for `C=CC(=O)N[C@@H]1CN(c2nc(Nc3cnn(C)c3)c3ncn(C(C)(C)C)c3n2)CC1F` (stereo in doubt) [Example 49, N-((3R,4S)-1-(9-(tert-butyl)-6-((1-methyl-1H-pyrazol-4-yl)amino)-9H-purin-2-yl)-4-fluoropyrrolidin-3-yl)acrylamide]?
A: IC50 (EGFR L858R (NCI-H3255)): 3 nM; IC50 [1]: 21 nM; IC50 (EGFR del/T790M (PC9-DRH)): 2 nM; IC50 [2]: 787 nM; IC50 (EGFR del (PC9)): 8 nM

Q: What does the source list for `C=CC(=O)N[C@@H]1CN(c2nc(Nc3cnn(C)c3)c3ncn(C(C)C)c3n2)C[C@@H]1OC` (single isomer, unassigned) [Example 50, N-((cis*)-1-(9-isopropyl-6((1-methyl-1H-pyrazol-4-yl)amino)-9H-purin-2-yl)-4-methoxypyrrolidin-3-yl)acrylamide]?
A: IC50 (EGFR L858R (NCI-H3255)): 3 nM; IC50 [1]: 26 nM; IC50 (EGFR del/T790M (PC9-DRH)): 34 nM; IC50 [2]: 587 nM; IC50 (EGFR del (PC9)): 8 nM

Q: Which results are given for `C=CC(=O)N[C@@H]1CN(c2nc(Nc3cnn([C@@H]4CCN(C)C4)c3C)c3ncn(C(C)C)c3n2)C[C@H]1F` [Example 85, N-((3R,4R)-4-fluoro-1-(9-isopropyl-6-((5-methyl-1-((R)-1-methylpyrrolidin-3-yl) -1H-pyrazol-4-yl)amino)-9H-purin-2-yl)pyrrolidin-3-yl)acrylamide]?
A: IC50 (EGFR L858R (NCI-H3255)): 34 nM; IC50 [1]: 17 nM; IC50 (EGFR del/T790M (PC9-DRH)): 15 nM; IC50 [2]: 647 nM; IC50 (EGFR del (PC9)): 104 nM
